# Assay results reported in US20250388592A1 (REMYND N.V., priority 2022, published 2025).
# pEC50: −log10 of the molar value.
# System: M17_3TAU(P301L) cells
# Experiment: TAU-induced cytotoxicity (LDH) in the neuroblastoma tauopathy model
# Type: cell-based
# Conditions: Homo sapiens, 168 h, inhibition of TAU-induced toxicity, 7 days retinoic acid differentiation, LDH readout
# Outline: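 Stably transfected BE-M17 cells expressing human TAU-P301L, seeded in serum-free detection medium, then differentiated with 2.5 μM RA (added in equal volume) for 7 days at 37° C/5% CO2 to induce TAU aggregation. Cytotoxicity = supernatant LDH increase over total LDH; EC50 from dose-dependent inhibition curves.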
row,SMILES,pEC50
1,COc1cccc(CN2CC3(C2)CN(C(=O)NC2CCCC2)C3)c1 [Cpd B183],> 9.72
2,COc1cccc(CN2CC3(C2)CN(C(=O)NCC2CCCCC2)C3)c1 [Cpd B184],8.29
3,COc1cccc(CN2CC3(C2)CN(C(=O)Nc2ccc(Cl)cc2)C3)c1 [Cpd B185],7.75
4,COc1cccc(CN2CC3(C2)CN(C(=O)Nc2ccc(OC(F)F)cc2)C3)c1 [Cpd B186],7.47
5,O=C(Nc1ccc(Cl)cc1)N1CC2(CN(Cc3ccc(F)cc3)C2)C1 [Cpd B187],8.04
6,O=C(NCc1ccc(F)cc1)N1CC2(CN(Cc3ccc(F)cc3)C2)C1 [Cpd B188],7.28
7,O=C(Nc1cccc(C(F)(F)F)c1)N1CC2(CN(Cc3ccc(F)cc3)C2)C1 [Cpd B189],7.97
8,"O=C(NC12CC(F)(C1)C2)N1CC2(CN(Cc3ccc(F)cc3)C2)C1 [Cpd B190, 6-(4-fluorobenzyl)-N-(3-fluorobicyclo[1.1.1]pentan-1-yl)-2,6-diazaspiro[3.3]heptane-2-carboxamide]",6.31
9,"Cc1ccc(CN2CC3(C2)CN(C(=O)NCc2ccc(F)cc2)C3)o1 [Cpd B191, N-(4-fluorobenzyl)-6-((2-methyl-furan-5-yl)methyl)-2,6-diazaspiro[3.3]heptane-2-carboxamide]",6.84
10,Cc1csc(CN2CC3(C2)CN(C(=O)NCc2ccc(F)cc2)C3)c1 [Cpd B192],6.85
11,Cc1nc(CN2CC3(C2)CN(C(=O)NCC2CCC(F)(F)CC2)C3)cs1 [Cpd B194],6.58
12,O=C(NCC1CCC(F)(F)CC1)N1CC2(CN(Cc3ncccc3Cl)C2)C1 [Cpd B196],7.90
13,O=C(NCC1CCC(F)(F)CC1)N1CC2(CN(Cc3ncccc3C(F)(F)F)C2)C1 [Cpd B197],7.89
14,Cc1cccnc1CN1CC2(C1)CN(C(=O)NCC1CCC(F)(F)CC1)C2 [Cpd B198],7.78
15,O=C(NCC1CCC(F)(F)CC1)N1CC2(CN(Cc3ncccc3F)C2)C1 [Cpd B199],7.27
16,O=C(NCC1CCC(F)(F)CC1)N1CC2(CN(Cc3ccc(C(F)(F)F)cc3)C2)C1 [Cpd B200],7.53
17,O=C(NCC1CCC(F)(F)CC1)N1CC2(CN(Cc3ccc(F)cc3C(F)(F)F)C2)C1 [Cpd B201],8.45
18,Cn1cc(Cl)c(CN2CC3(C2)CN(C(=O)NCC2CCC(F)(F)CC2)C3)n1 [Cpd B202],7.85
19,Cc1c(Cl)c(CN2CC3(C2)CN(C(=O)NCC2CCC(F)(F)CC2)C3)nn1C [Cpd B203],7.81

row,SMILES,pEC50
1,Cn1cc(CN2CC3(C2)CN(C(=O)NCC2CCC(F)(F)CC2)C3)c(Cl)n1 [Cpd B204],7.26
2,O=C(NC1CCC(F)(F)CC1)N1CC2(CN(Cc3ccc(F)cn3)C2)C1 [Cpd B205],6.58
3,O=C(NC1CCC(F)(F)CC1)N1CC2(CN(Cc3ncccc3C(F)(F)F)C2)C1 [Cpd B206],7.51
4,O=C(NC1CCC(F)(F)CC1)N1CC2(CN(Cc3ccccc3C(F)(F)F)C2)C1 [Cpd B207],7.75
5,O=C(NC1CCC(F)(F)CC1)N1CC2(CN(Cc3c(F)cccc3C(F)(F)F)C2)C1 [Cpd B208],6.60
6,Cn1cc(Cl)c(CN2CC3(C2)CN(C(=O)NC2CCC(F)(F)CC2)C3)n1 [Cpd B209],7.82
7,Cc1csc(CN2CC3(C2)CN(C(=O)NC2CCC(F)(F)CC2)C3)c1 [Cpd B210],7.84
8,"Cc1cccnc1CN1CC2(C1)CN(S(=O)(=O)CCc1ccccc1)C2 [Cpd B211, 2-((3-methylpyridin-2-yl)methyl)-6-((phenethyl)sulfonyl)-2,6-diazaspiro[3.3]heptane]",7.02
9,Cc1cccnc1CN1CC2(C1)CN(S(=O)(=O)Cc1cccc(C(F)(F)F)c1)C2 [Cpd B212],8.31
10,Cc1cccnc1CN1CC2(C1)CN(S(=O)(=O)Cc1ccc(F)cc1)C2 [Cpd B213],7.84
11,Cc1nc(CN2CC3(C2)CN(S(=O)(=O)Cc2cccc(C(F)(F)F)c2)C3)cs1 [Cpd B215],8.43
12,O=S(=O)(Cc1ccc(C(F)(F)F)cc1)N1CC2(CN(Cc3ccc(F)cc3)C2)C1 [Cpd B216],8.24
13,O=S(=O)(c1ccc(OC(F)(F)F)cc1)N1CC2(CN(Cc3ccc(F)cc3)C2)C1 [Cpd B217],9.34
14,O=S(=O)(Cc1cccc(Cl)c1)N1CC2(CN(Cc3ccc(F)cc3)C2)C1 [Cpd B218],7.77
15,COc1cccc(CN2CC3(C2)CN(S(=O)(=O)c2ccc(OC(F)(F)F)cc2)C3)c1 [Cpd B219],8.08
16,COc1cccc(CN2CC3(C2)CN(S(=O)(=O)c2ccc(C(F)(F)F)cc2)C3)c1 [Cpd B220],7.47
17,COc1cccc(CN2CC3(C2)CN(S(=O)(=O)Cc2ccc(F)cc2)C3)c1 [Cpd B221],7.73
18,COc1cccc(CN2CC3(C2)CN(S(=O)(=O)Cc2ccc(C(F)(F)F)cc2)C3)c1 [Cpd B224],7.92
19,"COc1cccc(CN2CC3(CN(Cc4ccc(Cl)cc4)C3)C2)c1 [Cpd B225, 2-(4-chlorobenzyl)-6-(3-methoxybenzyl)-2,6-diazaspiro[3.3]heptane]",8.28

row,SMILES,pEC50
1,COc1cccc(CN2CC3(CN(Cc4ccc(F)cc4)C3)C2)c1 [Cpd B226],8.94
2,"Fc1ccc(Cc2nsc(NC3CC4(CC(NCc5ccccc5)C4)C3)n2)cc1 (stereo not drawn) [Cpd B301, N-benzyl-N′-(3-(4-fluorobenzyl)-1,2,4-thiadiazol-5-yl) spiro[3.3]heptane-2,6-diamine]",7.95
3,"CN(Cc1ccccc1)C1CC2(CC(Nc3nc(Cc4ccc(F)cc4)ns3)C2)C1 (stereo not drawn) [Cpd B302, N-benzyl-N′-(3-(4-fluorobenzyl)-1,2,4-thiadiazol-5-yl)-N-methyl spiro[3.3]heptane-2,6-diamine]",9.05
4,"Clc1ccc(CNC2CC3(C2)CC(Nc2nc(Cc4ccc(Cl)cc4)ns2)C3)cc1 (stereo not drawn) [Cpd B303, N-(4-chlorobenzyl)-N′-(3-(4-chlorobenzyl)-1,2,4-thiadiazol-5-yl) spiro[3.3]heptane-2,6-diamine]",7.93
5,"FC(F)(F)c1ccc(CNC2CC3(C2)CC(Nc2nc(Cc4ccc(Cl)cc4)ns2)C3)cc1 (stereo not drawn) [Cpd B304, N-(3-(4-chlorobenzyl)-1,2,4-thiadiazol-5-yl)-N′-(4-(trifluoromethyl)benzyl) spiro[3.3]heptane-2,6-diamine]",7.50
6,"COc1ccccc1CNC1CC2(C1)CC(Nc1nc(Cc3ccc(Cl)cc3)ns1)C2 (stereo not drawn) [Cpd B305, N-(3-(4-chlorobenzyl)-1,2,4-thiadiazol-5-yl)-N′-(2-methoxybenzyl) spiro[3.3]heptane-2,6-diamine]",8.66
7,"Clc1ccc(Cc2nsc(NC3CC4(CC(NCc5ccc(Cl)c(Cl)c5)C4)C3)n2)cc1 (stereo not drawn) [Cpd B306, N-(3-(4-chlorobenzyl)-1,2,4-thiadiazol-5-yl)-N′-(3,4-dichlorobenzyl) spiro[3.3]heptane-2,6-diamine]",7.45
8,"Clc1ccc(Cc2nsc(NC3CC4(CC(NCc5ccc(Cl)cc5Cl)C4)C3)n2)cc1 (stereo not drawn) [Cpd B307, N-(3-(4-chlorobenzyl)-1,2,4-thiadiazol-5-yl)-N′-(2,4-dichlorobenzyl) spiro[3.3]heptane-2,6-diamine]",8.89
9,"Clc1ccc(Cc2nsc(NC3CC4(CC(NCc5cc(Cl)ccc5Cl)C4)C3)n2)cc1 (stereo not drawn) [Cpd B308, N-(3-(4-chlorobenzyl)-1,2,4-thiadiazol-5-yl)-N′-(2,5-dichlorobenzyl) spiro[3.3]heptane-2,6-diamine]",8.42
10,"Cc1cc(CNC2CC3(C2)CC(Nc2nc(Cc4ccc(Cl)cc4)ns2)C3)ccc1F (stereo not drawn) [Cpd B309, N-(3-(4-chlorobenzyl)-1,2,4-thiadiazol-5-yl)-N′-(4-fluoro-3-methylbenzyl) spiro[3.3]heptane-2,6-diamine]",7.92
11,"COc1cccc(CNC2CC3(C2)CC(Nc2nc(Cc4ccc(Cl)cc4)ns2)C3)c1 (stereo not drawn) [Cpd B310, N-(3-(4-chlorobenzyl)-1,2,4-thiadiazol-5-yl)-N′-(3-methoxybenzyl) spiro[3.3]heptane-2,6-diamine]",8.34
12,"COc1cccc(OC)c1CNC1CC2(C1)CC(Nc1nc(Cc3ccc(Cl)cc3)ns1)C2 (stereo not drawn) [Cpd B311, N-(3-(4-chlorobenzyl)-1,2,4-thiadiazol-5-yl)-N′-(2,6-dimethoxybenzyl) spiro[3.3]heptane-2,6-diamine]",8.40
13,"Fc1ccccc1CNC1CC2(C1)CC(Nc1nc(Cc3ccc(Cl)cc3)ns1)C2 (stereo not drawn) [Cpd B312, N-(3-(4-chlorobenzyl)-1,2,4-thiadiazol-5-yl)-N′-(2-fluorobenzyl) spiro[3.3]heptane-2,6-diamine]",8.66
14,"COc1ccc(CNC2CC3(C2)CC(Nc2nc(Cc4ccc(Cl)cc4)ns2)C3)cc1F (stereo not drawn) [Cpd B313, N-(3-(4-chlorobenzyl)-1,2,4-thiadiazol-5-yl)-N′-(3-fluoro-4-methoxybenzyl) spiro[3.3]heptane-2,6-diamine]",8.54
15,"COc1cccc(CNC2CC3(C2)CC(Nc2nc(Cc4ccc(Cl)cc4)ns2)C3)c1OC (stereo not drawn) [Cpd B314, N-(3-(4-chlorobenzyl)-1,2,4-thiadiazol-5-yl)-N′-(2,3-dimethoxybenzyl) spiro[3.3]heptane-2,6-diamine]",8.52
16,"CCOc1ccccc1CNC1CC2(C1)CC(Nc1nc(Cc3ccc(Cl)cc3)ns1)C2 (stereo not drawn) [Cpd B315, N-(3-(4-chlorobenzyl)-1,2,4-thiadiazol-5-yl)-N′-(2-ethoxybenzyl) spiro[3.3]heptane-2,6-diamine]",8.40
17,"COc1ccc(CNC2CC3(C2)CC(Nc2nc(Cc4ccc(Cl)cc4)ns2)C3)c(OC)c1 (stereo not drawn) [Cpd B316, N-(3-(4-chlorobenzyl)-1,2,4-thiadiazol-5-yl)-N′-(2,4-dimethoxybenzyl) spiro[3.3]heptane-2,6-diamine]",8.51
18,"COc1ccc(CNC2CC3(C2)CC(Nc2nc(Cc4ccc(Cl)cc4)ns2)C3)cc1OC (stereo not drawn) [Cpd B317, N-(3-(4-chlorobenzyl)-1,2,4-thiadiazol-5-yl)-N′-(3,4-dimethoxybenzyl) spiro[3.3]heptane-2,6-diamine]",7.39
19,"COc1ccc(CNC2CC3(C2)CC(Nc2nc(Cc4ccc(Cl)cc4)ns2)C3)cc1 (stereo not drawn) [Cpd B318, N-(3-(4-chlorobenzyl)-1,2,4-thiadiazol-5-yl)-N′-(4-methoxybenzyl) spiro[3.3]heptane-2,6-diamine]",8.00
